This is an account of results in US5124319A, “Benzimidazole phosphono-amino acids” (American Home Products Corporation, priority 1991, dated 1992).

One test has as its system NMDA-induced convulsions. Nature of the test: murine NMDA-induced convulsion assay (survival). It counts as in vivo, mice (male Swiss-albino, CD-1 strain). The conditions noted are these: for ED50: Mus musculus, ip, 0.5 h. The method, then:
The compounds of the invention are further tested for their in vivo ability to antagonize NMDA in the murine NMDA-induced convulsion assay.
Male Swiss-albino mice (CD-1 strain, Charles River) 18-22 grams in weight, after 18 hours of food deprivation, are habituated to an observation chamber for 30 minutes. The mice are pretreated with the representative test compound followed thirty minutes later with NMDA, 195 mg/kg, i.p., which is a dose normally causing 90% mortality resulting from motor seizures including uncontrollable hind leg scratching or limbs and/or torso muscle jerking with loss of righting reflex followed by death within the 30 minute observation period after NMDA administration. From the latter, the ED50 for survival is determined.
Data analyzed using the probit analysis program PS-NONLIN (Natural Response Rate Version). The output of this program contains the statistical significance of the slope of the dose-response and the ED 50% and 95% confidence limits for survival.

Another test deals with NMDA receptor. Nature of the test: [3H]CPP binding assay (displacement of tritiated CPP in rat frontal cortex homogenates). The conditions noted are these: [3H]CPP 8 nM, 23° C., 15 min, pH 7.6. The method, then: The compounds of the invention are tested for their NMDA competitive antagonist activity by their ability to displace tritiated 3-(2-carboxypiperazine-4-yl)propyl-1-phosphonic acid (CPP), a known competitive NMDA antagonist, in rat frontal cortex homogenates in the in vitro [^3 H]CPP binding assay.
Rats are decapitated and their brains are immediately removed, weighed and placed in approximately 15 volumes of ice cold 10% sucrose. Each brain is homogenized using a Potter Elvehjem glass homogenizer (12 strokes at 840 rpm) equipped with a Teflon pestle. The homogenate is then centrifuged at 1,000×g. for 10 minutes. The resulting pellet is discarded and the supernatant is centrifuged at 20,000×g. for 20 minutes. The crude mitochondrial pellet is resuspended in ice cold distilled water and dispersed using a Brinkmann Polytron (PT-10 at setting of 6 for 30 seconds). The suspension is centrifuged at 8,000×g. for 20 minutes. The resulting supernatant and buffy coat is centrifuged at 48,000×g.for 20 minutes. The final crude synaptic membrane pellet is resuspended in ice cold distilled water and centrifuged at 48,000×g. for 20 minutes.
To facilitate removal of endogenous glutamate, the membranes are resuspended in 15 volumes of ice cold 50 mMolar TRIS (pH 7.6) containing 0.04% Triton X-100. The suspension is incubated at 37° C. for 15 minutes, and then centrifuged at 20,000×g. for 20 minutes. The pellet is washed (i.e., resuspended in ice cold TRIS buffer and centrifuged at 20,000×g. for 20 minutes) twice. The membrane pellet is finally resuspended in 15 volumes ice cold 50 mMolar TRIS, distributed to several centrifuge tubes and centrifuged at 20,000×g. for 20 minutes and the pellets are frozen (-70° C.) for subsequent use in binding assays.
For the binding assay, the membrane pellets are thawed and resuspended in 15 volumes ice cold 50 mMolar TRIS (pH 7.6) buffer. Triplicate samples (1000 μl) of the membrane suspension containing between 0.2 and 0.4 mg protein/ml are incubated at 23° C. for 15 minutes with 8 nM [^3 H]CPP (New England Nuclear), one of various test solutions, and buffer in a final incubation volume of 2 ml using plastic minivials (Skatron). The samples are then centrifuged at 48,000×g. for 20 minutes and the supernatants discarded. The pellets are digested with tissue solubilizer (NCS, Amersham; 500 μl/sample) for 1 hour. Hydrochloric acid (100 μl of 4N) is added to each sample to reduce chemiluminescence during subsequent counting. Scintillation cocktail (Aqasol, DuPont; 3.2 ml) is added to each of the minivials which are then capped and shaken for 15 minutes prior to counting. The vials are placed into a Packard 460 CD (or equivalent) counter for determination of radioactivity.
Total specific binding is defined as total binding less the binding in the presence of 1 mMolar NMDA. Specific binding in the presence of a test drug is expressed as a percent of total specific binding when no drug is present. When test compounds are examined for a dose-response relationship, the results are then plotted as the logit of % binding vs. the log of the test drug concentration. Linear regression analysis then yields a straight line from which an IC50 with 95% confidence limits can be calculated.

[1] abbreviates: reference compounds, i.p., 30 min before NMDA 195 mg/kg i.p., 95% confidence interval, read-out: ED50 % for survival.
Setting [2] is: compounds of the invention, read-out: IC50.
[3] abbreviates: standard compounds, read-out: IC50 ± S.E.M.
Setting [4] is: compounds of the invention, i.p., 30 min before NMDA 195 mg/kg i.p., read-out: ED50 (survival).

Structures can show the parent of a compound that is named as a salt. Where two headings read alike, the source gives them in different places.

With `O=C(O)C1CN(CCCP(=O)(O)O)CCN1` (centres unmarked) [CPP, 3-(2-carboxypiperazine-4-yl)propyl-1-phosphonic acid, reference compound], the ED50 in the test with NMDA-induced convulsions (setting [1]) is 1.04 mg/kg.
On the same count and under the same terms, the result for `C[C@]12N[C@H](Cc3ccccc31)c1ccccc12` [MK-801, reference compound] reads 0.19 mg/kg.
`Cl.Cl.N[C@H](Cc1nc2ccccc2n1CP(=O)(O)O)C(=O)O.O.O` [Example 1, R-α-Amino-1-(phosphonomethyl)-1H-benzimidazole-2-propanoic acid, dihydrochloride, dihydrate]: the IC50 at NMDA receptor (setting [2]) stood at 59 nM. In the test on NMDA-induced convulsions (read-out: ED50 (survival)), the ED50 amounted to 2 mg/kg.
The like results for `Cl.N[C@H](Cc1nc2cc(Cl)ccc2n1CP(=O)(O)O)C(=O)O` [Example 8, R-α-Amino-5-chloro-1-(phosphonomethyl)-1H-benzimidazole-2-propanoic acid hydrochloride] were, in that order, 7 nM and 0.13 mg/kg.
For `Cc1cc2nc(C[C@@H](N)C(=O)O)n(CP(=O)(O)O)c2cc1C.Cl.Cl` [Example 3, R-α-Amino-5,6-dimethyl-1-(phosphonomethyl)-1H-benzimidazole-2-propanoic acid, dihydrochloride], on NMDA receptor (setting [2]), the concentration for half-maximal inhibition (IC50) was 123 nM. In addition, the “% survival” value in the test on NMDA-induced convulsions (3 mg/kg, 30 min before NMDA 195 mg/kg i.p.) amounted to 10%.
Turning to `NC(CCCCCP(=O)(O)O)C(=O)O` (centres unmarked) [AP7, reference compound], on NMDA receptor (setting [3]), the 50% inhibitory concentration (IC50) came out at 639 ± 129 nM.
As to `CN1C(=O)CN=C(c2ccccc2)c2cc(Cl)ccc21` [Diazepam, reference compound], the ED50 in the test on NMDA-induced convulsions (setting [1]) was 1.91 mg/kg.
With `Cl.Cl.N[C@H](Cc1nc2cc(Cl)c(Cl)cc2n1CP(=O)(O)O)C(=O)O` [Example 2, R-α-Amino-5,6-dichloro-1-(phosphonomethyl)-1H-benzimidazole-2-propanoic acid, dihydrochloride], the 50% inhibitory concentration (IC50) at NMDA receptor (setting [2]) was determined as 18.2 nM. Further, the ED50 in the test with NMDA-induced convulsions (read-out: ED50 (survival)) was determined as 2.7 mg/kg.
For the compound `N[C@H](Cc1nc2ccc(Cl)cc2n1CP(=O)(O)O)C(=O)O` [Example 7, R-α-Amino-6-chloro-1-(phosphonomethyl)-1H-benzimidazole-2-propanoic acid, 0.8 hydrochloride, hydrate], on NMDA receptor (setting [2]), the 50% inhibitory concentration (IC50) is 21.7 nM. Also, the median effective dose (ED50) with NMDA-induced convulsions (setting [4]) was less than 5 mg/kg.
In the case of `N[C@@H](CCC(=O)O)C(=O)O` [L. Glutamic Acid, reference compound], the IC50 on NMDA receptor (setting [3]) was 64.3 ± 4.7 nM.
`N[C@@H](Cc1nc2cc(Cl)c(Cl)cc2n1CP(=O)(O)O)C(=O)O` [Example 9, S-α-Amino-5,6-dichloro-1-(phosphonomethyl)-1H-benzimidazole-2-propanoic acid, dihydrate]: the concentration for half-maximal inhibition (IC50) at NMDA receptor (setting [2]) was determined as 1010 nM. Further, the 50% effective dose (ED50) with NMDA-induced convulsions (setting [4]) was greater than 10 mg/kg.

The ED50 is the dose at which the effect has come halfway, by size or by number of responders. What is called IC50 is the point on the concentration scale where inhibition reaches its midpoint.
